Reference: patent US20250186457A1, “USE OF AN ORGANOMETALLIC RUTHENIUM COMPOUND FOR THE PREVENTION AND/OR TREATMENT OF DISEASES AND/OR CONDITIONS RELATED TO CANCER IN AN INDIVIDUAL” (FACULDADE DE CIÊNCIAS DA UNIVERSIDADE DE LISBOA, priority 2022, published 2025)

Experiments:
SW480 cell line [1] = details: IC50 of PMC79, 48 h
Method: After 48 h, cells were processed according with (Teixeira et al., 2018). Slides were maintained at −20° C. until visualization in a fluorescence microscope (Leica DM 5000B, Leica Microsystems, Wetzlar, Germany).
DAPI ([…]), FITC (fluorescein isothiocyanate) and merged were obtained by fluorescence microscopy.

SW480 = details: IC50 value, 48 h
Method: Acquisition was performed using CytoFLEX Cytometer (Beckman Coulter, Brea, CA, USA).
The FIG. 4 illustrates the apoptotic cell death analysis.

A2780 = details: read-out: IC50 A2780; ovarian cancer cell line; cited from earlier work
SW480 cell line [2] = assay: Colony formation assay; details: 48 h with ¼ IC50 and ½ IC50, SW480
Method: SW480 cell line was seeded, at a concentration of 500 cells/ml, in 6-well plates. […] The negative control cells were treated with DMSO 0.1%. […] Medium was renewed every 3 days. Nine days after removing the treatments, cells were stained as previously described (Côrte-Real, Karas, Brás, et al., 2019).
The FIG. 1 illustrates the analysis of the colony formation ability, after 48 h of incubation with ¼ IC50 and ½ IC50, in SW480 cell line. […] The values represent mean±S.D. of at least three independent experiments. Statistical analysis was performed by one-way ANOVA with Dunnett's multiple comparisons test. ****P≤ 0.0001 compared with negative control.

SW480 cell line [3] = details: IC50 value, 48 h
Method: SW480 cell line was seeded in 12-well plates with one coverslip per well. […] After 48 hours of incubation, the cells were fixed and stained as previously described (Pilon et al., 2020). Representative images were obtained in a fluorescence microscope (Olympus motorized BX63F Upright Microscope) (Olympus@, Tokyo, Japan) at a magnification of 600×.
Representative images (×600) of DAPI (4′,6-diamidino-2-phenylindole), Phalloidin-AlexaFluor 568 and merged were obtained in a fluorescence microscope. The results were obtained from at least three independent experiments.

breast cancer cell lines [4] = details: cited from earlier work
SW480 cells = details: IC50 and 2×IC50, 48 h and 72 h
Method: SW480 cells were incubated with the dye and seeded according to the procedure recommended by CFSE package insert (BD Horizon™). […] After 48 h and 72 h, both floating and attached cells were collected, washed with PBS, centrifuged at 500 rpm for 10 min and the pellet resuspended in PBS before cytometer acquisition.
The effects on proliferation were also studied using carboxyfluorescein succinimidyl ester assay (CFSE). […] Thus, when cell proliferation is inhibited, we observe an increase of the intracellular fluorescence.
The FIG. 3 illustrates the quantification of CFSE median fluorescence intensity normalized to T0 after 48 and 72 h of incubation with IC50 and 2×IC50, in SW480 cell line. The values represent mean±S.D. of at least three independent experiments. Statistical analysis was performed by two-way ANOVA with Dunnett's multiple comparisons test. **P≤0.01; ***P≤0.001; ****P≤0.0001 compared with negative control.

[5] = tested on: KRAS, pAKT, total-AKT, pERK and total-ERK proteins, in SW480 cells; assay: Western blot analysis, SW480 cells harboring KRAS mutation; assay type: cell-based; details: 48 h at the IC50 concentration of each compound, KRAS mutated
Method: SW480 cells were exposed for 48 h, at the IC50 concentration of each compound before protein extraction and Western blot analysis.

breast cancer cell lines [6] = details: cited from earlier work; remark: listed apart in the source
[7] = tested on: KRAS, pAKT, total-AKT, pERK and total-ERK proteins in RKO cells; assay: Western blot analysis, RKO cell line harboring wild-type KRAS; assay type: cell-based; details: 48 h with IC50 values
breast cancer cell lines [8] = details: cited from earlier work; remark: listed apart in the source
[9] = tested on: proteins involved in MAPK and PI3K signaling pathways, in SW480 cells; details: SW480, 48 h, IC50 of PMC79
Method: Samples were processed for LC-MS/MS analysis (Chiva et al. 2018; Olivella et al. 2021). Protein identification and validation, and gene ontology, localization and network analysis were performed as previously described (Perkins et al., 1999; Beer et al., 2017; Perez-Riverol et al., 2022).
Values represent mean of at least three independent experiments.

SW480 cell line [10] = assay: Wound healing assay; details: IC50 and 2×IC50, 12 h
Method: SW480 cell line was seeded at a concentration of 7×10^5 cells/ml, in 6-well plates. […] The negative control cells were treated with DMSO 0.1%. Each condition was photographed at 0 h, 4 h, 8 h and 12 h. To analyze the data and measure the wound size at each time-point ImageJ 1.53a software was used.
Values represent mean±S.D. of at least three independent experiments. Statistical analysis was performed by one-way ANOVA with Turkey's multiple comparisons test. *P≤0.05; ***P≤0.001 compared with negative control.

MCF7 = details: breast cancer cell line; cited from earlier work
SW480 cell line [11] = tested on: SW480 cell line
Method: SW480 cell line was seeded in 6-well plates. […] 24 h and 48 h later, cells were collected and processed according to the method described in (Teixeira et al., 2018). Cell-cycle phase data analysis and quantification was performed using FlowJo 10.7.2 software.

MDA-MB-231 = details: read-out: IC50 MDA-MB-231 (PMC79); breast cancer cell line; cited from earlier work
[12] = tested on: noncancerous NCM460 cell line derived from normal colon epithelial mucosa; details: read-out: IC50 in noncancerous cell line NCM460; Sulforhodamine B, 48 h
Method: (§1) The noncancerous NCM460 cell line derived from normal colon epithelial mucosa, was obtained from INCELL's (Moyer et al., 1996), and the colorectal cancer derived cell lines, SW480, LS174T and RKO, were obtained from American Type Culture Collection (ATCC). All cell lines were maintained at 37° C. under a humidified atmosphere containing 5% CO2. NCM460 and SW480 cells were grown in RPMI medium and LS174T and RKO cells in DMEM, all supplemented with 10% FBS and 1% penicillin/streptomycin. SW480 cell were seeded normally at a concentration of 1×10^5 cells/ml except for some specific assays.
(§2) After 48 h of treatment, Sulforhodamine B was performed as previously described (Côrte-Real et al., 2019). Results were expressed relatively to the negative control (1), which was considered as 100% of cell growth.
(§3) Values represent mean+SD of at least three independent experiments.

SW480 CRC cell line = details: read-out: IC50 in SW480 CRC cell line; Sulforhodamine B, 48 h
Method: as §1, §2, §3

[13] = tested on: KRAS, pAKT, total-AKT, pERK and total-ERK proteins, in LS174T cells; details: 48 h of incubation, KRAS mutation
Method: Preparation of total protein extracts of colorectal cancer cell lines (RKO, LS174T and SW480), SDS-PAGE and Western blots were performed as previously described (Alves et al., 2015).
The Antibodies used were anti-KRAS and β-actin (Sigma); anti-phospho p44/42 MAPK (Thr202/Tyr204) (pERK), anti-p44/42 total (ERK), anti-phospho Akt (Ser473) (pAKT) and anti-Akt total (Cell Signaling) (AKT); GAPDH (Gene Tex). Proteomic study
GAPDH immunoblot was used as a loading control. The results were obtained from at least three independent experiments.

## O=S(=O)([O-])C(F)(F)F.OCc1ccnc(-c2cc(CO)ccn2)c1.[Ru+2].c1cc[cH-]c1.c1ccc(P(c2ccccc2)c2ccccc2)cc1 [PMC79, ({2,2′-bipyridine}-4,4′-diyldimethanol-k^2N, N′)(η^5-cyclopentadienyl) (6riphenylphosphine) ruthenium (II) triflate]
SW480 cell line [1]
  TUNEL positive cells: increase of the number of apoptotic cells (TUNEL positive)
SW480
  necrotic cells (AV−/PI+): 10%
  percentage of apoptotic cells (AV+/PI−; AV+/PI+): 74%
A2780
  IC50: 3.9 µM
SW480 cell line [2]
  clonogenic ability (colony formation): significantly decreased the clonogenic ability
SW480 cell line [3]
  F-actin organization and morphology: affect cell-cell adhesion and intercellular contacts establishment
Breast cancer cell lines [4]
  mitochondria morphology and actin cytoskeleton in breast cancer cell lines: induced alterations in mitochondria morphology
SW480 cells
  proliferation (CFSE median fluorescence intensity): decrease in proliferation under all conditions
[5]
  expression of KRAS, pERK, total-ERK, pAKT and total-AKT in SW480: inhibit to a very high extent
Breast cancer cell lines [6]
  proliferation / colony formation ability in breast cancer cell lines: inhibited proliferation by decreasing colony formation ability
[7]
  expression of KRAS, pERK, total-ERK, pAKT and total-AKT in RKO: no effect
Breast cancer cell lines [8]
  apoptosis (Annexin V stained cells) in breast cancer cell lines: induced apoptosis
[9]
  Abundance Ratio (log2): (pmc79)/(Control), AKT1: −0.4039
  Abundance Ratio (log2): (pmc79)/(Control), AKT2: −0.2506
  Abundance Ratio (log2): (pmc79)/(Control), EGFR: −0.948
  Abundance Ratio (log2): (pmc79)/(Control), ERK1: −0.3601
  Abundance Ratio (log2): (pmc79)/(Control), KRAS: −0.4019
  Abundance Ratio (log2): (pmc79)/(Control), MEK1: −0.5421
  Abundance Ratio (log2): (pmc79)/(Control), MEK2: −0.2365
  Abundance Ratio (log2): (pmc79)/(Control), MTOR: −1.326
  Abundance Ratio (log2): (pmc79)/(Control), PIK3C3: −0.1795
  Abundance Ratio (log2): (pmc79)/(Control), PIK3R4: −0.5555
[9]; EGFR, KRAS, MEK 1, MEK 2, ERK1, PIK3, AKT1, AKT2, MTOR
  abundance of all proteins involved in KRAS signaling pathways versus control: less abundant
SW480 cell line [10]
  percentage of wound closure: decreased the percentage of wound closure in a dose-dependent manner
MCF7
  IC50: 5.9 µM
SW480 cell line [11]; IC50 of PMC79, 24 h
  cell cycle alteration at 24 h: cell cycle arrest at G0/G1 phase
SW480 cell line [11]; IC50 of PMC79, 48 h
  cell cycle alteration at 48 h: increase of sub-G1 population
MDA-MB-231
  IC50: 2.1 µM
[12]
  IC50: 44 µM
SW480 CRC cell line
  IC50: 40 µM
[13]
  expression of KRAS, pERK, total-ERK, pAKT and total-AKT in LS174T: able to inhibit the expression

## N.N.[Cl][Pt][Cl] [cisplatin, reference compound]
[5]
  expression of KRAS, pERK, total-ERK, pAKT and total-AKT in SW480: not observed
[7]
  expression of KRAS, pERK, total-ERK, pAKT and total-AKT in RKO: The same was also observed
